Read-outs that look alike come from different tables or passages of the source.
System: α7 integrin promoter
Assay: muscle cell-based assay: α7βgal+/− myoblasts/myotubes, LacZ reporter, β-galactosidase cleavage of FDG
Parameters: species or system mouse
Conditions: for α7 integrin expression in muscle: screen of DIVERSet library
Outline: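 Primary α7βgal+/− mouse myoblasts (LacZ knocked into α7 integrin exon 1, promoter retained), differentiated; promoter activity read as β-galactosidase conversion of non-fluorescent FDG to fluorescein. Hits followed by dose-response, western analysis and myostatin counterscreen.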

[1] = curve class number, key not given
[2] = curve fit, activity at zero concentration
[3] = Mus musculus, given as log AC50 (negative values), read-out: Fit LogAC50 (converted)
[4] = Mus musculus, read-out: Fit LogAC50 (converted)
[5] = enhancement of α7 integrin expression in muscle cells

Compound	Score (Table 12 compound data)	Fit Curve Class [1]	Fit HillSlope (curve fit)	Fit Zero Activity [%] [2] [%]	EC50 [3] [µM]	further results
COc1ccc(N2CCN(CCC3Oc4cc([N+](=O)[O-])ccc4NC3=O)CC2)cc1 (centres unmarked) [Compound 194]	42	2.2	1.7137	−2.9581	–	Fit Infinite Activity [%] (curve fit, activity at infinite concentration): 73.9084%; Fit LogAC50 (given as log AC50 (negative values)): −5.05
N#Cc1ccc(OCC(O)CS(=O)(=O)c2ccccc2)cc1 (centres unmarked) [Compound 195]	42	2.1	4.045	−9.8792	10	–
Cc1ccccc1C(=O)Nc1nnc(SC(C)C)s1 [Compound 196]	42	2.2	2.8473	−0.5091	10	–
CC(=O)c1cccc(NC(=O)C(=O)Nc2cccc3ccccc23)c1 [Compound 197]	42	2.2	0.9	1.5	8.91	–
Cc1cc(C)nc(NC(=O)c2ccc(Cl)cc2Cl)n1 [Compound 198]	42	2.2	4.9549	1.0914	10	–
CC(C)N(CCO)C(=O)CCc1nnc(CCCc2ccccc2)o1 [Compound 199]	42	2.2	1.2876	0.1862	12.6	–
c1ccc(CN2CCCC3(CCCN(Cc4nc(CC5CC5)no4)C3)C2)cc1 (centres unmarked) [Compound 200]	42	2.1	1.4781	−42.0662	8.91	–
Cn1c(=O)c2c(nc(Sc3ncnn3CC(=O)NC3CCCCC3)n2C)n(C)c1=O [Compound 201]	42	2.1	2.3531	−19.8816	11.2	–
NS(=O)(=O)c1ccc(NC(=O)Nc2ccc(Cl)cc2)cc1 [Compound 202]	–	–	–	–	–	Fit Curve Class: 2.2; Fit HillSlope: 1.8617
CC1=C(C#N)C(=O)N(C)C(=O)/C1=C\NNc1ccc(F)cc1 [Compound 203]	42	2.1	1.4781	−47.2995	7.08	–
CCS(=O)(=O)N1CCN(c2ccc([N+](=O)[O-])c(NCC3CCCO3)c2)CC1 (centres unmarked) [Compound 204]	42	2.2	3.5722	0.4864	10	–
O=C(NC(=S)NCCC1=CCCCC1)c1ccc(Br)o1 [Compound 205]	42	2.1	1.4781	−40.2978	7.08	–
CCCC(=O)Nc1ccccc1NC(=O)c1ccc(OCC)cc1 [Compound 206]	42	2.1	4.095	13.9528	11.2	–
NS(=O)(=O)c1ccc(NC(=O)c2ccc(CNS(=O)(=O)c3cc(C(F)(F)F)ccc3Cl)cc2)cc1 [Compound 207]	42	2.2	2.5334	0.1699	10	–
COc1ccc(CN2CCNC(=O)C2CC(=O)NCCc2c[nH]c3ccccc23)c(OC)c1 (centres unmarked) [Compound 208]	42	2.2	3.1925	−9.1413	10	–
O=Cc1cn(Cc2ccc(F)cc2Cl)c2ccccc12 [Compound 209]	–	–	–	–	–	Fit Curve Class: 2.1; Fit HillSlope: 4.095; Fit Zero Activity [%]: 12.1779%; Score: 42; EC50 [4]: 15.8 µM

Compound	Score (Table 12 compound data)	Fit Curve Class [1]	Fit HillSlope (curve fit)	Fit Zero Activity [%] [2] [%]	EC50 [3] [µM]	further results
Cc1ccc(-c2nc(C)sc2CC(=O)OCC(=O)Nc2c(F)cccc2F)cc1 [Compound 210]	42	2.1	4.9549	11.9156	12.6	–
CNC(=O)/C(=C\c1cccc(Oc2ccccc2)c1)NC(=O)c1ccccc1 [Compound 211]	42	2.1	1.1341	−0.265	11.2	–
O=S(=O)(NCC(c1ccco1)N1CCOCC1)c1ccc(Cl)cc1 (centres unmarked) [Compound 212]	42	2.1	4.5045	9.0119	14.1	–
C=CCc1c(C)nc(-c2ccccc2)nc1N/N=C/c1ccccc1 [Compound 213]	42	2.1	1.2876	−1.0122	11.2	–
CCc1ccc(Sc2cc(C(=O)NCCN3CCOCC3)c3ccccc3n2)cc1 [Compound 214]	42	2.1	2.0937	13.9034	11.2	–
O=C(Nc1ccc(Oc2cccnc2)cc1)c1ccccc1Cl [Compound 215]	42	2.1	2.1211	13.9023	10	–
O=C(CNC(=O)c1cccc(F)c1)N/N=C/c1cc(Br)ccc1OCc1ccccc1 [Compound 216]	42	2.2	0.8	3.67	10	–
COc1ccc(CCNC(=O)c2cc(-c3cc(C)ccc3O)n[nH]2)cc1OC [Compound 217]	42	2.2	3.0654	9.7958	10	–
N#Cc1ccc(Sc2nc3ccccc3[nH]2)cc1C#N [Compound 218]	42	2.2	3.6272	13.7566	10	–
CC(=O)Nc1nonc1-c1nc2ccccc2n1CCC(C)C [Compound 219]	42	2.2	1.5936	−7.5793	11.2	–
C=CCn1c(COc2ccc(Cl)cc2)nnc1SCc1ccc(C#N)cc1 [Compound 220]	42	2.1	3.2975	8.1688	11.2	–
O=C(Cn1nc(-c2ccc(Cl)cc2)ccc1=O)N1CCC2(CC1)OCCO2 [Compound 221]	–	–	–	–	–	Fit Curve Class: 2.2; Fit HillSlope: 4.095; Fit Zero Activity [%]: 7%; Score: 41; EC50 [4]: 11.2 µM
CCOC(=O)/C(C(=O)c1ccccc1)=C(\N)NCCO [Compound 222]	41	2.2	4.095	9.8519	12.6	–
Cn1c(SCC(=O)c2ccccc2)nc2c(c1=O)C1(CCCC1)Cc1ccccc1-2 [Compound ID# 1001, 3-methyl-2-[(2-oxo-2-phenylethyl)thio]-3H-spiro[benzo[h]quinazoline-5,1″-cyclopentan]-4(6H)-one]	–	–	–	–	–	Optimal Concentration [5]: 12.5 μm; EC50 (enhancement of α7 integrin expression in muscle cells, read-out: EC50): 3 µM; α7 integrin expression in muscle: increased
CCC(=O)c1ccccc1OCCCN1CCN(C)CC1.Cl [Compound ID# 1002, 1-{2-[3-(4-methyl-1-piperazinyl)propoxy]Phenyl}-1-propanone hydrochloride]	–	–	–	–	–	EC50 (Mus musculus, enhancement of α7 integrin expression in muscle cells, read-out: EC50): 1.5 µM; Optimal Concentration [5]: 12.5 μm; α7 integrin expression in muscle: increased

Source: patent publication US10028992B2, “Methods of treating muscular dystrophy” (BOARD OF REGENTS OF THE NEVADA SYSTEM OF HIGHER EDUCATION …, priority 2012, dated 2018)
